Read-outs that look alike come from different tables or passages of the source.
Key:
Format in all cases: cell-based
[1] = target: T1, hAR (Homo sapiens, UniProt P10275); test: co-transfection assay, AR agonist, CV-1 cells; conditions: for AR Agonist CV-1 Cells Efficacy (%): hAR in CV-1 cells, relative to maximum LUC production by reference agonist
T1 construct: expressed in transfected cells; host or cells: CV-1 cells (African green monkey kidney fibroblasts)
T1 sequence (P10275 1-920): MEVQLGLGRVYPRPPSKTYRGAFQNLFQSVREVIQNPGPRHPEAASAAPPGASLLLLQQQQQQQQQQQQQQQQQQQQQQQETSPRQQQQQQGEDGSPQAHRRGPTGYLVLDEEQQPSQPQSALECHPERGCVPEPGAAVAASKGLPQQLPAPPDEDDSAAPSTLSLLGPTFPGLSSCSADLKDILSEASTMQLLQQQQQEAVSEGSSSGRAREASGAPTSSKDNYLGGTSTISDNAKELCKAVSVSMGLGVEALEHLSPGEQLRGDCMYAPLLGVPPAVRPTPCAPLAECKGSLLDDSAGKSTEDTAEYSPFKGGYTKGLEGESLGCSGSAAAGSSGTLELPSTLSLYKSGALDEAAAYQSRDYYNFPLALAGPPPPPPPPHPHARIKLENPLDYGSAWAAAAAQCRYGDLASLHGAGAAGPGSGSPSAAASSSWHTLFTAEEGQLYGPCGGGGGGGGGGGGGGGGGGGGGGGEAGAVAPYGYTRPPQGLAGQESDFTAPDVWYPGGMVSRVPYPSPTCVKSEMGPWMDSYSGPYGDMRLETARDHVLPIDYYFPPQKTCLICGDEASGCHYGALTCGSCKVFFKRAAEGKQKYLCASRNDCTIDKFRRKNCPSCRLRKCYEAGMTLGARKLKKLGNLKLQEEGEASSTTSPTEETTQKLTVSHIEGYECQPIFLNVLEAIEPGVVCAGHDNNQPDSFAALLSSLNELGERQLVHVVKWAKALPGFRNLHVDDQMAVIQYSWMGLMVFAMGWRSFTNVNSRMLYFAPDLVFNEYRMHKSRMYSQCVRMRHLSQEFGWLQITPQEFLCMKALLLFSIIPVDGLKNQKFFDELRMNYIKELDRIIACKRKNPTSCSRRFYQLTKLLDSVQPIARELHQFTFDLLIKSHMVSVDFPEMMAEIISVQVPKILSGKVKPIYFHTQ

[2] = target: T1, hAR; test: co-transfection assay, AR antagonist (in presence of DHT), CV-1 cells; conditions: for AR Antagonist CV-1 Cells Efficacy (%): hAR in CV-1 cells, maximal inhibition, DHT at EC50
[3] = target: T2, GR (Homo sapiens, UniProt P04150); test: co-transfection assay, GR antagonist
T2 construct: expressed in transfected cells; host or cells: CV-1 cells
T2 sequence (P04150 1-777): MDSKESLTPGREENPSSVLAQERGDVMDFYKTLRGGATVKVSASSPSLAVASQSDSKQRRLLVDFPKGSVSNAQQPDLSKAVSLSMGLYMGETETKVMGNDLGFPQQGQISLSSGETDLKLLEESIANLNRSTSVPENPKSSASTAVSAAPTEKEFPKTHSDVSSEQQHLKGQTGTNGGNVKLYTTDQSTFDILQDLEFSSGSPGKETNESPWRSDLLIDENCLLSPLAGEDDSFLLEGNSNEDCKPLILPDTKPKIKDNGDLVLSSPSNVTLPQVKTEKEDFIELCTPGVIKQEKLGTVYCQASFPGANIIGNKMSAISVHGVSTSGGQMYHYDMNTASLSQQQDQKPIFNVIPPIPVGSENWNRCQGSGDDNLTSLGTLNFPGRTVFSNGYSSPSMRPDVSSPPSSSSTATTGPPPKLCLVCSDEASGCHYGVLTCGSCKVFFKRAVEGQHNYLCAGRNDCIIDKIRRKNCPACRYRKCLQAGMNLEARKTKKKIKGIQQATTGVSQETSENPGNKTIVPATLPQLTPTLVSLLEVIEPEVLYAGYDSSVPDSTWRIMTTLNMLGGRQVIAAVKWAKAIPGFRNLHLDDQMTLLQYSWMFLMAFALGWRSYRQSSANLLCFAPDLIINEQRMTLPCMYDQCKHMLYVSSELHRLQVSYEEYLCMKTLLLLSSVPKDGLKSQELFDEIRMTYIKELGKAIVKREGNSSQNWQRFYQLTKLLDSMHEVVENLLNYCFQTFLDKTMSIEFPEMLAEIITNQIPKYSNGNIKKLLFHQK
Protocol: (§1) CV-1 cells (African green monkey kidney fibroblasts) were cultured in the presence of Dulbecco's Modified Eagle Medium (DMEM) supplemented with 10% charcoal resin-stripped fetal bovine serum (CH-FBS) then transferred to 96-well microtiter plates one day prior to transfection.
(§2) Three to four replicates were used for each sample.
(§3) After 40 hours, the cells were washed with PBS, lysed with a Triton X-100-based buffer and assayed for LUC and β-Gal activities using a luminometer or spectrophotometer, respectively. For each replicate, the normalized response (NR) was calculated as: […]

[4] = target: T3, PR (Homo sapiens, UniProt P06401); test: co-transfection assay, PR antagonist (in presence of progesterone)
T3 construct: expressed in transfected cells; host or cells: CV-1 cells
T3 sequence (P06401 1-933): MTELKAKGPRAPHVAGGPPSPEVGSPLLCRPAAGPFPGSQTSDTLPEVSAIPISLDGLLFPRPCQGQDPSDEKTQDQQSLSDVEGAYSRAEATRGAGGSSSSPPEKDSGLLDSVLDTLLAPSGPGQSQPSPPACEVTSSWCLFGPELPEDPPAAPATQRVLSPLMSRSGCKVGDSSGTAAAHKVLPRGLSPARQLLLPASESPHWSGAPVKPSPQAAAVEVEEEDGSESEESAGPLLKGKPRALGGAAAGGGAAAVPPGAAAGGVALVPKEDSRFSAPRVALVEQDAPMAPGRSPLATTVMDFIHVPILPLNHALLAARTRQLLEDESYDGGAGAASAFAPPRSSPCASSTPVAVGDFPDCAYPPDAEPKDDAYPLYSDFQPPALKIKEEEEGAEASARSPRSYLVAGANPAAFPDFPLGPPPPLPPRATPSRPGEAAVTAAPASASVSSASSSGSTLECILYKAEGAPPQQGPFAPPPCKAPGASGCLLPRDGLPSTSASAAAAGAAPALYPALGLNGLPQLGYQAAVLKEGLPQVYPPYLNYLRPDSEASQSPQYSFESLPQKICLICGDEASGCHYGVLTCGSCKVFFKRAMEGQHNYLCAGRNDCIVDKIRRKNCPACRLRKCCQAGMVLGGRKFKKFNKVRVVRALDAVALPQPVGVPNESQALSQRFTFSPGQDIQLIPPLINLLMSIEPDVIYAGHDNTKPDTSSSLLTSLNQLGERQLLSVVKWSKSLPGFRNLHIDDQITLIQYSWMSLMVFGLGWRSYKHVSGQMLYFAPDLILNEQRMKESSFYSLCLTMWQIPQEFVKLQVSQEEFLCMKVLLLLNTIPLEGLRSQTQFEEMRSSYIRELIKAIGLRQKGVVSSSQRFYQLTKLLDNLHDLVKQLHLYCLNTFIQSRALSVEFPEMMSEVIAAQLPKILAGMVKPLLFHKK
Protocol: as §1, §2, §3

[5] = target: T4, ER (Homo sapiens, UniProt P03372); test: co-transfection assay, ER agonist
T4 construct: expressed in transfected cells; host or cells: CV-1 cells
Protocol: as §1, §2, §3

[6] = read-out: AR Potency Agon, Table 2

T4 sequence (P03372 whole entry): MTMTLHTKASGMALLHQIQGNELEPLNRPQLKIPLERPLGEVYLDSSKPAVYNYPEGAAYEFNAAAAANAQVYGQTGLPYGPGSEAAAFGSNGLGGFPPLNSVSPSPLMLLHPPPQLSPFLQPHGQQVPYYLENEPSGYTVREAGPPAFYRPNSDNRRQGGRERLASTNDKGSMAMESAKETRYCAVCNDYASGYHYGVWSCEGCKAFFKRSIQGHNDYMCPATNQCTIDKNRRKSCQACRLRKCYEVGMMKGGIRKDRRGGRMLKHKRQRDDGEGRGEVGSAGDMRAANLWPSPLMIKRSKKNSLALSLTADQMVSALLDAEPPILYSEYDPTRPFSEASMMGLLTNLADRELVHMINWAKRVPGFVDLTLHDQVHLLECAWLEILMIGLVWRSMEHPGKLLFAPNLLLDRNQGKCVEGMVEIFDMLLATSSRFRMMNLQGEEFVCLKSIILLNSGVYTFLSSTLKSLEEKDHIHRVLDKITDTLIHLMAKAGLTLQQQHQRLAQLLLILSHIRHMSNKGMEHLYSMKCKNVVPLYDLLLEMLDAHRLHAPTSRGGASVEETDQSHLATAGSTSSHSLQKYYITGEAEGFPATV

SMILES | EC50 [1] | AR Agonist CV-1 Cells Efficacy (%) [1] | EC50 [1, 6] | IC50 [2] | AR Antagonist CV-1 Cells Efficacy (%) [2] | IC50 [3] | IC50 [4] | EC50 [5]
O=C1COc2cc3[nH]c(=O)cc(C(F)(F)F)c3cc2N1CC(F)(F)F [Compound 137, 1,6-Dihydro-1-(2,2,2-trifluoroethyl)-9-(trifluoromethyl)-3H-[1,4]oxazino[3,2-g]-quinolin-2,7-dione] | > 10 µM | na (na = not active (i.e. efficacy of < 20 and potency of > 10,000 nM for the cotransfection assay, and Ki > 1000 nM for the binding assay)) | > 10 µM | 18 nM | 84% | > 10 µM | > 10 µM | > 10 µM
CCN1CCOc2cc3c(cc21)c(C(F)(F)F)cc(=O)n3C [Compound 104, 1-Ethyl-1,2,3,6-tetrahydro-6-methyl-9-(trifluoromethyl)-7H-[1,4]oxazino[3,2-g]quinolin-7-one] | > 10 µM | na (na = not active (i.e. efficacy of < 20 and potency of > 10,000 nM for the cotransfection assay, and Ki > 1000 nM for the binding assay)) | > 10 µM | 26 nM | 68% | 0.83 µM | 2 µM | > 10 µM
O=c1cc(C(F)(F)F)c2cc3c(cc2[nH]1)OCCN3CC(F)(F)F [Compound 105, 1,2,3,6-Tetrahydro-1-(2,2,2-trifluoroethyl)-9-(trifluoromethyl)-7H-[1,4]oxazino[3,2-g]quinolin-7-one] |  |  |  |  |  | 6.7 µM | 3 µM | > 10 µM
CN1CCOc2cc3c(cc21)c(C(F)(F)F)cc(=O)n3C [Compound 102, 1,2,3,6-Tetrahydro-1,6-dimethyl-9-(trifluoromethyl)-7H-[1,4]oxazino[3,2-g]quinolin-7-one] | > 10 µM | na^1 (na = not active (i.e. efficacy of < 20 and potency of > 10,000 nM for the cotransfection assay, and Ki > 1000 nM for the binding assay)) | > 10 µM | 22 nM | 58% | 3.2 µM | 4.1 µM | > 10 µM
